Organism: Rattus norvegicus
Test: DrugMatrix - Regimen: Daily Repeat
Format: toxicity, organism-based, Sprague-Dawley
Design: regimen Daily Repeat, gender Male, age 6-8 weeks
Details: in vivo, sc, 0 mg/kg, route subcutaneous, dose level Control, […]; for ABSOLUTE BASOPHIL / ABSOLUTE EOSINOPHIL / ABSOLUTE LYMPHOCYTE / ABSOLUTE MONOCYTE / ABSOLUTE SEGMENTED NEUTROPHIL / BASOPHIL / EOSINOPHIL / ERYTHROCYTE COUNT / HEMATOCRIT / HEMOGLOBIN / LEUKOCYTE COUNT / LYMPHOCYTE / MEAN CORPUSCULAR HEMOGLOBIN / MEAN CORPUSCULAR HEMOGLOBIN CONCENTRATION / MEAN CORPUSCULAR VOLUME / MONOCYTE / NEUTROPHIL / NUCLEATED RED BLOOD CELLS / PLATELET COUNT: tissue Blood; for ALANINE AMINOTRANSFERASE / ALBUMIN / ALKALINE PHOSPHATASE / ASPARTATE AMINOTRANSFERASE / BLOOD UREA NITROGEN / CARBON DIOXIDE / CHLORIDE / CHOLESTEROL / CREATINE PHOSPHOKINASE / CREATININE / GLUCOSE / LACTATE DEHYDROGENASE / LIPASE / PHOSPHORUS / POTASSIUM / SODIUM / TOTAL BILIRUBIN / TOTAL PROTEIN / URIC ACID: tissue Plasma

SMILES: Cc1cc(O)cc(C)c1Cl [CHLOROXYLENOL]
- ABSOLUTE BASOPHIL (72 h, time 3 day): 0 CELLS/uL
- ABSOLUTE EOSINOPHIL (72 h, time 3 day): 92.33 CELLS/uL
- ABSOLUTE LYMPHOCYTE (72 h, time 3 day): 12247.5 CELLS/uL
- ABSOLUTE MONOCYTE (72 h, time 3 day): 389.67 CELLS/uL
- ABSOLUTE SEGMENTED NEUTROPHIL (72 h, time 3 day): 1320.5 CELLS/uL
- BASOPHIL (72 h, time 3 day): 0%
- EOSINOPHIL (72 h, time 3 day): 0.67%
- ERYTHROCYTE COUNT (72 h, time 3 day): 5.45 x10E6/uL
- HEMATOCRIT (72 h, time 3 day): 34.85%
- HEMOGLOBIN (72 h, time 3 day): 12.97 G/DL
- LEUKOCYTE COUNT (72 h, time 3 day): 14.05 x10E3/uL
- LYMPHOCYTE (72 h, time 3 day): 87.33%
- MEAN CORPUSCULAR HEMOGLOBIN (72 h, time 3 day): 23.78 pg
- MEAN CORPUSCULAR HEMOGLOBIN CONCENTRATION (72 h, time 3 day): 37.22 G/DL
- MEAN CORPUSCULAR VOLUME (72 h, time 3 day): 63.93 fL
- MONOCYTE (72 h, time 3 day): 2.67%
- NEUTROPHIL (72 h, time 3 day): 9.33%
- NUCLEATED RED BLOOD CELLS (72 h, time 3 day): 0 /100WBC
- PLATELET COUNT (72 h, time 3 day): 1174 x10E3/uL
- ALANINE AMINOTRANSFERASE (72 h, time 3 day): 48.83 u/L
- ALBUMIN (72 h, time 3 day): 4.23 G/DL
- ALKALINE PHOSPHATASE (72 h, time 3 day): 351.5 u/L
- ASPARTATE AMINOTRANSFERASE (72 h, time 3 day): 90 u/L
- BLOOD UREA NITROGEN (72 h, time 3 day): 15.33 mg/dL
- CARBON DIOXIDE (72 h, time 3 day): 23 mmol/L
- CHLORIDE (72 h, time 3 day): 103.5 MEQ/L
- CHOLESTEROL (72 h, time 3 day): 70.5 mg/dL
- CREATINE PHOSPHOKINASE (72 h, time 3 day): 651.83 u/L
- CREATININE (72 h, time 3 day): 0.22 mg/dL
- GLUCOSE (72 h, time 3 day): 180.67 mg/dL
- LACTATE DEHYDROGENASE (72 h, time 3 day): 165 u/L
- LIPASE (72 h, time 3 day): 9.33 u/L
- PHOSPHORUS (72 h, time 3 day): 12.03 mg/dL
- POTASSIUM (72 h, time 3 day): 6.17 MEQ/L
- SODIUM (72 h, time 3 day): 142.62 MEQ/L
- TOTAL BILIRUBIN (72 h, time 3 day): 0.2 mg/dL
- TOTAL PROTEIN (72 h, time 3 day): 5.73 G/DL
- URIC ACID (72 h, time 3 day): 1.77 mg/dL
- ABSOLUTE BASOPHIL (120 h, time 5 day): 0 CELLS/uL
- ABSOLUTE EOSINOPHIL (120 h, time 5 day): 0 CELLS/uL
- ABSOLUTE LYMPHOCYTE (120 h, time 5 day): 12736.67 CELLS/uL
- ABSOLUTE MONOCYTE (120 h, time 5 day): 253.5 CELLS/uL
- ABSOLUTE SEGMENTED NEUTROPHIL (120 h, time 5 day): 1193.17 CELLS/uL
- BASOPHIL (120 h, time 5 day): 0%
- EOSINOPHIL (120 h, time 5 day): 0%
- ERYTHROCYTE COUNT (120 h, time 5 day): 5.72 x10E6/uL
- HEMATOCRIT (120 h, time 5 day): 36.05%
- HEMOGLOBIN (120 h, time 5 day): 13.62 G/DL
- LEUKOCYTE COUNT (120 h, time 5 day): 14.18 x10E3/uL
- LYMPHOCYTE (120 h, time 5 day): 89.33%
- MEAN CORPUSCULAR HEMOGLOBIN (120 h, time 5 day): 23.83 pg
- MEAN CORPUSCULAR HEMOGLOBIN CONCENTRATION (120 h, time 5 day): 37.8 G/DL
- MEAN CORPUSCULAR VOLUME (120 h, time 5 day): 63.05 fL
- MONOCYTE (120 h, time 5 day): 1.83%
- NEUTROPHIL (120 h, time 5 day): 8.83%
- NUCLEATED RED BLOOD CELLS (120 h, time 5 day): 0 /100WBC
- PLATELET COUNT (120 h, time 5 day): 1322.17 x10E3/uL
- ALANINE AMINOTRANSFERASE (120 h, time 5 day): 48.83 u/L
- ALBUMIN (120 h, time 5 day): 4.27 G/DL
- ALKALINE PHOSPHATASE (120 h, time 5 day): 295.17 u/L
- ASPARTATE AMINOTRANSFERASE (120 h, time 5 day): 75.83 u/L
- BLOOD UREA NITROGEN (120 h, time 5 day): 15.5 mg/dL
- CARBON DIOXIDE (120 h, time 5 day): 30.5 mmol/L
- CHLORIDE (120 h, time 5 day): 102.33 MEQ/L
- CHOLESTEROL (120 h, time 5 day): 76.17 mg/dL
- CREATINE PHOSPHOKINASE (120 h, time 5 day): 205.5 u/L
- CREATININE (120 h, time 5 day): 0.2 mg/dL
- GLUCOSE (120 h, time 5 day): 149.67 mg/dL
- LACTATE DEHYDROGENASE (120 h, time 5 day): 124.5 u/L
- LIPASE (120 h, time 5 day): 10 u/L
- PHOSPHORUS (120 h, time 5 day): 10.93 mg/dL
- POTASSIUM (120 h, time 5 day): 6.59 MEQ/L
- SODIUM (120 h, time 5 day): 143.1 MEQ/L
- TOTAL BILIRUBIN (120 h, time 5 day): 0.2 mg/dL
- TOTAL PROTEIN (120 h, time 5 day): 6.05 G/DL
- URIC ACID (120 h, time 5 day): 1.45 mg/dL

From ChEMBL document CHEMBL3885881, “DrugMatrix”
